From ChEMBL document CHEMBL1201862, “PubChem BioAssay data set” (2004)
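Cultured in 96-well plates, cells were exposed to test compound for 48 hours across five concentrations. GI50 is the concentration that inhibits growth by half.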 The source made the active and inactive calls. Rule as the data show it: active = GI50 up to about 1.1 µM and inactive = higher.

Key:
Experiment in all cases: NCI tumour cell line growth inhibition, 48 h
CCRF-CEM = system: CCRF-CEM
HCC 2998 = system: HCC 2998
HOP-62 = system: HOP-62
HOP-92 = system: HOP-92
HT-29 = system: HT-29
KM12 = system: KM12
NCI-H23 = system: NCI-H23
RXF 393 = system: RXF 393
SF-539 = system: SF-539
SK-MEL-2 = system: SK-MEL-2
SK-MEL-5 = system: SK-MEL-5
SK-OV-3 = system: SK-OV-3
SW-620 = system: SW-620
UO-31 = system: UO-31
TK-10 = system: TK-10
NCI-H522 = system: NCI-H522

Measured: GI50

O=C(OCc1ccccc1)N1N=NC2C1C1CC(OCc3ccccc3)(OCc3ccccc3)C2O1 (centres undefined)
inactive: CCRF-CEM > 100 µM | HCC 2998 > 100 µM | HOP-62 > 100 µM | HOP-92 > 100 µM | HT-29 > 100 µM | KM12 > 100 µM | NCI-H23 > 100 µM | RXF 393 > 100 µM | SF-539 > 100 µM | SK-MEL-2 > 100 µM | SK-MEL-5 > 100 µM | SK-OV-3 > 100 µM | SW-620 > 100 µM | UO-31 > 100 µM

Cc1cc(N(CCC#N)CCC#N)ccc1/C=N\c1ccc(C(=O)NN2C(=O)/C(=C/c3ccc(N(CCC#N)CCC#N)cc3)N=C2c2cc([N+](=O)[O-])ccc2Cl)cc1
inactive: CCRF-CEM 65.6 µM | HCC 2998 > 100 µM | HOP-62 95.1 µM | HOP-92 > 100 µM | HT-29 80.5 µM | KM12 > 100 µM | NCI-H23 > 100 µM | RXF 393 > 100 µM | SF-539 > 100 µM | SK-MEL-2 > 100 µM | SK-MEL-5 55.3 µM | SK-OV-3 > 100 µM | SW-620 > 100 µM | TK-10 > 100 µM | UO-31 > 100 µM

COc1cc(Nc2nc3cc(C)ccc3nc2-c2ccccc2)cc(OC)c1OC
inactive: CCRF-CEM 29.8 µM | HCC 2998 12.3 µM | HOP-92 23.2 µM | HT-29 14.8 µM | KM12 34.4 µM | NCI-H23 22.8 µM | NCI-H522 25.6 µM | SK-MEL-2 23 µM | SK-MEL-5 19.2 µM | SK-OV-3 > 100 µM | SW-620 58.1 µM | TK-10 42 µM | UO-31 17.2 µM

CC1=CC(C)(c2c[nH]c3ccccc23)CC(C)(C)c2c1[nH]c1ccccc21 (centres undefined)
inactive: CCRF-CEM 9.55 µM | HCC 2998 14.5 µM | HOP-62 22.8 µM | HT-29 12.9 µM | KM12 23.7 µM | NCI-H23 14.4 µM | RXF 393 12.4 µM | SF-539 43.2 µM | SK-OV-3 28.6 µM | SW-620 16.9 µM | TK-10 43.1 µM | UO-31 13.2 µM

CC(C)[C@H]1CO[C@]2(C)[C@@H]3CN(Cc4ccccc4)C[C@@H]3C(=O)N12
inactive: CCRF-CEM > 100 µM | HOP-62 > 100 µM | HOP-92 74.5 µM | HT-29 > 100 µM | KM12 > 100 µM | NCI-H23 > 100 µM | NCI-H522 > 100 µM | RXF 393 > 100 µM | SF-539 > 100 µM | SK-MEL-2 > 100 µM | SK-MEL-5 > 100 µM | SK-OV-3 > 100 µM | SW-620 > 100 µM | TK-10 > 100 µM | UO-31 > 100 µM

O=C(CC1(O)C(=O)Nc2ccccc21)c1ccccc1O (centres undefined)
inactive: HOP-62 > 100 µM | HOP-92 > 100 µM | HT-29 > 100 µM | NCI-H23 > 100 µM | NCI-H522 > 100 µM | RXF 393 > 100 µM | SF-539 > 100 µM | SK-MEL-2 > 100 µM | SK-MEL-5 > 100 µM | SK-OV-3 > 100 µM | SW-620 > 100 µM | TK-10 > 100 µM | UO-31 91.6 µM

NC(=O)C12CC3CC(CC(Br)(C3)C1)C2
inactive: CCRF-CEM > 100 µM | HCC 2998 > 100 µM | HOP-62 > 100 µM | HOP-92 > 100 µM | HT-29 > 100 µM | KM12 > 100 µM | NCI-H23 > 100 µM | NCI-H522 > 100 µM | SF-539 > 100 µM | SK-MEL-5 > 100 µM | SK-OV-3 > 100 µM | SW-620 > 100 µM | TK-10 > 100 µM | UO-31 > 100 µM

O=S(=O)(N/N=C/c1cccc(Cl)c1Cl)c1ccccc1
inactive: CCRF-CEM 66.2 µM | HCC 2998 > 100 µM | HOP-62 > 100 µM | HOP-92 14.2 µM | HT-29 99.8 µM | KM12 > 100 µM | NCI-H23 45.6 µM | RXF 393 22.6 µM | SF-539 80 µM | SK-MEL-2 58.6 µM | SK-MEL-5 43.6 µM | SK-OV-3 > 100 µM | SW-620 > 100 µM | TK-10 > 100 µM | UO-31 94.4 µM

COc1ccc(C)cc1-c1cc(Sc2ccccc2)c(-c2cc(C)ccc2OC)o1
inactive: CCRF-CEM > 31.6 µM | HCC 2998 > 31.6 µM | HOP-62 > 31.6 µM | HOP-92 > 31.6 µM | HT-29 > 31.6 µM | KM12 > 31.6 µM | NCI-H23 > 31.6 µM | NCI-H522 > 31.6 µM | SF-539 > 31.6 µM | SK-MEL-2 > 10 µM | SK-MEL-5 > 31.6 µM | SK-OV-3 > 31.6 µM | SW-620 > 29.6 µM | TK-10 > 31.6 µM | UO-31 > 31.6 µM

O/N=C1/C(=C/c2ccccc2)CCCC1C(NO)c1ccccc1 (centres undefined)
inactive: HOP-92 33.3 µM | HT-29 > 100 µM | KM12 85.3 µM | NCI-H23 59.2 µM | NCI-H522 45.7 µM | RXF 393 34.8 µM | SF-539 > 100 µM | SK-MEL-2 > 100 µM | SK-OV-3 > 100 µM | SW-620 > 100 µM | TK-10 > 100 µM | UO-31 57.1 µM

COc1ccc(/C=C(\NC(=O)c2ccccc2)c2nc3ccccc3[nH]2)cc1
inactive: CCRF-CEM 42.4 µM | HCC 2998 41.9 µM | HOP-62 46.2 µM | HOP-92 26.9 µM | HT-29 36.4 µM | KM12 39.6 µM | NCI-H23 19.1 µM | NCI-H522 24.7 µM | SF-539 39.1 µM | SK-MEL-2 21.1 µM | SK-MEL-5 14.8 µM | SK-OV-3 45.1 µM | SW-620 46.6 µM | UO-31 22.4 µM

COc1cc2cccc(/N=C/c3c(Br)ccc(OC)c3OC(C)C)c2cc1OC
inactive: CCRF-CEM 25.7 µM | HCC 2998 65.3 µM | HOP-62 53.2 µM | HT-29 32.2 µM | KM12 30.8 µM | NCI-H23 50.1 µM | NCI-H522 30.5 µM | SF-539 50.6 µM | SK-MEL-2 > 100 µM | SK-MEL-5 55.7 µM | SK-OV-3 > 100 µM | SW-620 32.4 µM | TK-10 70.8 µM | UO-31 47.8 µM

C[C@]12CC/C(=N\OC(=O)Nc3ccccc3)C=C1CC[C@@H]1C2CC[C@@]2(C)C1CC[C@@H]2OC(=O)Nc1ccccc1 (some centres undefined)
inactive: CCRF-CEM > 100 µM | HCC 2998 > 100 µM | HOP-92 > 100 µM | HT-29 > 100 µM | KM12 41.9 µM | NCI-H23 73.3 µM | SF-539 > 100 µM | SK-MEL-2 > 100 µM | SK-MEL-5 23.1 µM | SK-OV-3 > 100 µM | SW-620 > 100 µM | TK-10 > 100 µM | UO-31 > 100 µM
